Source: paper PMC9576799, “Discovery of small molecule inhibitors that effectively disrupt IQGAP1-Cdc42 interaction in breast cancer cells” (Scientific Reports, 2022)
Where two headings read alike, the source gives them in different places.

Assays:
[1] = Parallel artificial membrane permeation assay (PAMPA); type: in vitro ADME; conditions: for Papp: PAMPA, read-out: PAMPA passive permeability
[2] = Metabolic half-life in rat liver microsome lysates; type: in vitro ADME; conditions: minimum detectable half-life of 1 min; for half-life: read-out: T1/2 metabolic half-life
MDA-MB-231 cells = test: IncuCyte proliferation assay, MDA-MB-231; type: cell-based, human; conditions: 72 h; for effect on proliferation: up to 50 µM
Protocol: (§1) MDA-MB-231 and MCF7 cells were grown to confluence, detached using trypsin–EDTA cell dissociation buffer (Gibco 12604013) and counted. Cells were plated into 384-well, clear-bottom, black, tissue culture treated plates (Corning 3683) using an automatic dispenser (Thermo Multidrop Combi SMART) at densities of 2000 cells/10 µL/well for MDA-MB-231 cells and 4000 cells/10 µL/well for MCF7 cells in DMEM supplemented with 5% FBS. After 4 h incubation at 37 °C with 5% CO2, the growth medium was replaced with 10 µL medium containing compounds at 16-point 1:2 serial dilutions with the final highest concentration of 50 µM for each compound. All samples containing compounds were plated in triplicate. Cells in the first column of the plate were treated with 0.5% DMSO as control. The plates were placed into an Incucyte SX5 Live-cell imaging system (Sartorius) and phase images were taken at 6-h intervals for 72 h with 10X objective lens. The growth medium containing compounds or DMSO was replenished after 24 h. The images were analyzed, and the growth curves generated by the Incucyte software 2020A using the basic analyzer mode.

MCF7 cells = test: IncuCyte proliferation assay, MCF7; type: cell-based, human; conditions: 72 h; for effect on proliferation: up to 50 µM
Protocol: as §1

His-Cdc42 = target: T1, His-Cdc42 (Homo sapiens, UniProt P60953, Q61L); test: Microscale thermophoresis (MST); type: binding; conditions: for Kd / effect on thermophoretic motion of Cdc42: MST; for Kd: 100 nM labeled His-Cdc42, n = 3; for effect on thermophoretic motion of Cdc42: 500 µM to 244 nM
T1 construct: made in house; host or cells: E. coli
T1 sequence (P60953 1-184 isoform P60953-1 Q61L): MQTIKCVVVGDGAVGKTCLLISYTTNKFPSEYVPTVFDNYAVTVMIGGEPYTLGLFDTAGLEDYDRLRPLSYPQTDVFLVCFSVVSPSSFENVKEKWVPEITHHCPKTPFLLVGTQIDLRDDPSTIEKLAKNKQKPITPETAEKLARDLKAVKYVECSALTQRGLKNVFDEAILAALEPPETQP
Protocol: Two-fold serial dilutions of compounds were first prepared in DMSO, then further diluted in PBS containing 0.05% Tween-20. […] Samples were loaded into Monolith™ standard capillaries and measured using Monolith NT.115 (Nanotemper Technologies) with 50% excitation power and 50% MST power, with laser on and off times of 30 s and 5 s, respectively. The Kd values were calculated by evaluating the thermophoresis and T-Jump signals using MO.Affinity Analysis software (Nanotemper Technologies). All experiments were conducted in three biological replicates.

GST-Cdc42-Q61L-His = target: T2, GST-Cdc42-Q61L-His (Homo sapiens, UniProt P60953, Q61L); test: HTRF counter-screen with double-tagged Cdc42; conditions: 100 nM GST-Cdc42-Q61L-His
T2 construct: His (hexa-histidine in the Results); made in house; host or cells: Escherichia coli BL-21
T2 sequence (P60953 2-191 isoform P60953-1 Q61L): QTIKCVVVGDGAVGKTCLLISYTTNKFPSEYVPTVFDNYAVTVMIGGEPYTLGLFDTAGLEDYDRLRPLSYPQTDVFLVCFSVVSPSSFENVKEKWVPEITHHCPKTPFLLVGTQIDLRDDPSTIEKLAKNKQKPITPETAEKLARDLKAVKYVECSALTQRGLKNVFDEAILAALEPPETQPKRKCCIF
Protocol: Two different HTRF counter-screens were used to identify false positive hits. The two interacting proteins GST-IQGAP1-C and His-Cdc42-Q61L were replaced with His-tagged GST or Cdc42-Q61L containing GST at the N-terminus and His at the C-terminus (GST-Cdc42-Q61L-His).
First, GST-Cdc42-Q61L-His was titrated in parallel with the pre-mixed His-Cdc42-Q61L and GST-IQGAP1-C to comparatively match the signal level to the signal of the primary HTRF assay. We chose 100 nM GST-Cdc42-Q61L-His protein as the final concentration for the counter-screen. The assay protocol is outlined in Supplementary Table S2 online. Briefly, 4 μL/well of […] diluted in binding buffer was dispensed to the plates, followed by pinning 23 nL/well of selected hit compounds from the primary screening and addition of 2 μL/well premixed HTRF antibodies. After 3 h, 1 μL/well of 2.8 M potassium fluoride was added to the assay and the fluorescence signal was read on the Envision instrument. For controls, we used pre-mixed proteins GST-IQGAP1-C and His-Cdc42-Q61L (primary assay’s regular conditions) as IC100, and […] at 1.5 nM final concentration as IC0.
Supplementary Table S2: Counter-screening HTRF protocol.
Step Parameter Value Description
1a Protein 4 µL 100 nM His-GST (final concentration), diluted in
1b Controls 4 µL Column 2: GST-IQGAP1-C protein only [1.5nM] final
Column 3: pre-mixed proteins (regular assay
2 Compounds 23 nL Selected compounds were pin-transferred from DMSO
HTRF α-His-XL (5 ng/µL, 3X working concentration) +
3 antibodies 2 µL α-GST-K (0.7 ng/µL 3X working concentration),
pre-mix mixed in binding buffer
4 Time 3 Incubation (ambient temperature)
5 Reagent 1 µL 2.8 M KF (7x)
6 Detector HTRF Envision plate reader (excitation: 340 nm, emission: […]

[3] = tested on: endogenous IQGAP1/Cdc42 interaction; test: Immunoprecipitation of endogenous IQGAP1 and co-precipitated Cdc42 in HEK293 cell lysates; type: binding; conditions: 0.2-50 µM
Protocol: Each compound was added to lysates from HEK293 cells at a final concentration of 50 µM and endogenous IQGAP1 was immunoprecipitated. DMSO alone was used as the negative control (100% binding).
HEK293 cells were plated in 10-cm dishes to reach 80% confluence. The following day, the cells were washed with ice-cold phosphate-buffered saline (PBS) and lysed with 500 µl of Buffer A (50 mM Tris–HCl, pH 7.4, 150 mM NaCl, and 1% Triton X-100) supplemented with complete protease and phosphatase inhibitors (Roche, Mannheim, Germany). Lysates were subjected to two rounds of sonication for 10 s each, and insoluble material was precipitated by centrifugation at 13,000 xg for 10 min at 4 °C. Supernatants were precleared with protein A-Sepharose beads for 1 h. DMSO (vehicle) or different concentrations of the compounds (0.2, 0.6, 1, 5, 16 or 50 µM) were added to equal amounts of protein lysates for 30 min. Protein A-Sepharose beads and anti-IQGAP1 polyclonal antibodies were then added for 2 h at 4 °C. Anti-rabbit IgG antibodies were used as the immunoprecipitation control. Samples were washed five times with Buffer A, resolved by SDS-PAGE and transferred to polyvinylidene fluoride (PVDF) membranes (Millipore Corp). Membranes were probed with anti-IQGAP1 and anti-Cdc42 antibodies. After secondary antibody detection, Western blots were imaged using a LI-COR Odyssey infrared imaging system (LI-COR, USA). Western blot quantification and analysis was conducted using Image Studio™ Lite (LI-COR Biosciences).

| Papp [1] [×10⁻⁶ cm/s] | half-life [2] [min] | Kd (His-Cdc42) [µM] | EC50 (GST-Cdc42-Q61L-His) [µM] | Kd (His-Cdc42; read-out: dissociation constant (Kd) for Cdc42) [µM] | EC50 (GST-Cdc42-Q61L-His; read-out: EC50 in double-tagged Cdc42 counter-screen) [µM] | PAMPA passive permeability [1] [×10⁻⁶ cm/s] | T1/2 metabolic half-life [2] [min] | EC50 (MDA-MB-231 cells; confluency) [µM] | EC50 (MCF7 cells; confluency) [µM] | concentration above which precipitates formed (His-Cdc42; MST samples, PBS containing 0.05% Tween-20) | SMILES | effect on proliferation (MDA-MB-231 cells) | effect on proliferation (MCF7 cells) | effect on Cdc42 binding to IQGAP1 in immunoprecipitation [3] | effect on thermophoretic motion of Cdc42 (His-Cdc42) | activity in double-tagged Cdc42 counter-screen (GST-Cdc42-Q61L-His) |
| --- | --- | --- | --- | --- | --- | --- | --- | --- | --- | --- | --- | --- | --- | --- | --- | --- |
| 177 | 7.12 | 96.2 | 6.31 |  |  |  |  |  |  |  | CCc1ccccc1Nc1ncnc2c1cnn2-c1ccc(Cl)cc1 [NCGC00138812] | dose-dependent inhibitory effect | dose-dependent inhibitory effect | reduced the binding substantially |  |  |
|  |  |  |  |  |  |  |  |  |  |  | Cc1cccc(NC(=O)c2c(NC(=O)C(F)(F)F)sc3c2CCCCC3)c1 [NCGC00098561] |  |  | reduced the binding substantially | did not affect the thermophoretic motion of Cdc42 | not active |
| 77 | 2.7 |  |  | 28.1 | 4.47 |  |  |  |  |  | CCN1CCN(c2ncc3c(n2)CCN(Cc2cc(Br)cs2)C3)CC1 [NCGC00131308] | dose-dependent inhibitory effect | dose-dependent inhibitory effect | reduced the binding substantially |  |  |
|  |  |  |  |  |  | 675 | 11.47 | 3.01 | 6.54 | above 62.5 µM | CCN(CC)CCn1c2ccccc2c2nc3ccc([N+](=O)[O-])cc3cc21 [MLS000332963] | dose-dependent inhibitory effect | dose-dependent inhibitory effect | reduced the binding substantially | did not affect the thermophoretic motion of Cdc42 | inactive |
